Where a name gives a salt, the structure may show the parent alone.
Biological target: T1, human HPK1 (MAP4K1) (Homo sapiens, UniProt Q92918)
T1 construct: Recombinant human HPK1 kinase domain was obtained from ThermoFisher (Cat. #PV6357) and SignalChem (Cat. #M23-11G); purchased ThermoFisher; SignalChem PV6357; M23-11G
T1 sequence (Q92918 17-274 limits assumed): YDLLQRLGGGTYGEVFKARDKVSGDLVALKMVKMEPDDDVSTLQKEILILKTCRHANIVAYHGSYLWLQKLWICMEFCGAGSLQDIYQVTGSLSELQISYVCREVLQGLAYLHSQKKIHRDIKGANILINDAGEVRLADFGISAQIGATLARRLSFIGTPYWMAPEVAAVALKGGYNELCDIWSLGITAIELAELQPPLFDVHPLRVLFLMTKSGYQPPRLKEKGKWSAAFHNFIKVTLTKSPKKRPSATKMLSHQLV
Test: Biochemical assay for activity against HPK1 (ADP-Glo, MBP substrate)
Settings: recombinant human HPK1 kinase domain, 1 nM enzyme, ADP-Glo luminescence
Procedure, shortened: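 Recombinant human HPK1 kinase domain (1 nM solution) preincubated 15 min at room temperature with compounds in pH 7.5 HEPES buffer with NaCl, TCEP, MgCl2, Tween-20, BSA. MBP substrate with ATP added, reaction run 2 h at room temperature. ADP formation read by ADP-Glo luminescence to give IC50.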

Row | Compound | IC50 [nM]
1 | COc1cc2c(cc1Nc1ncc3cnn(CCNC(C)=O)c3n1)CN(C)CC2 [Example 87, N-[2-[6-[(6-methoxy-2-methyl-3,4-dihydro-1H-isoquinolin-7-yl)amino]pyrazolo[3,4-d]pyrimidin-1-yl]ethyl]acetamide] | < 100
2 | COc1cc2c(cc1Nc1ncc3cnn(C[C@H]4CC[C@H](O)CC4)c3n1)CN(C)CC2 [Example 199, (trans)-4-((6-((6-methoxy-2-methyl-1,2,3,4-tetrahydroisoquinolin-7-yl)amino)-1H-pyrazolo[3,4-d]pyrimidin-1-yl)methyl)cyclohexan-1-ol hydrochloride] | < 100
3 | CC(=O)N1CCC[C@H]1Cn1ncc2cnc(Nc3cc4c(c(C(F)(F)F)c3)CCN(C)C4)nc21 [Example 62, (S)-1-(2-((6-((2-methyl-5-(trifluoromethyl)-1,2,3,4-tetrahydroisoquinolin-7-yl)amino)-1H-pyrazolo[3,4-d]pyrimidin-1-yl)methyl)182thenone182ne-1-yl)ethan-1-one] | < 100
4 | CN1CCc2ccc(Nc3ncc4cnn(C5CCCOC5)c4n3)cc2C1 (stereo not shown) [Example 15, 2-methyl-N-(1-(tetrahydro-2H-pyran-3-yl)-1H-pyrazolo[3,4-d]pyrimidin-6-yl)-1,2,3,4-tetrahydroisoquinolin-7-amine] | < 100
5 | CN1CCc2ccc(Nc3ncc4cnn(C5CCOCC5)c4n3)cc2C1 [Example 12, 2-methyl-N-(1-(tetrahydro-2H-pyran-4-yl)-1H-pyrazolo[3,4-d]pyrimidin-6-yl)-1,2,3,4-tetrahydroisoquinolin-7-amine] | < 100
6 | COc1cc2c(cc1Nc1ncc3cnn(C[C@@H]4C[C@H](F)CN4C(C)=O)c3n1)CN(C)CC2 [Example 146, 1-[(2S,4S)-4-fluoro-2-[[6-[(6-methoxy-2-methyl-3,4-dihydro-1H-isoquinolin-7-yl)amino]pyrazolo[3,4-d]pyrimidin-1-yl]methyl]pyrrolidin-1-yl]ethan-1-one] | < 100
7 | COc1cc2c(cc1Nc1ncc3cnn(CC4CCCNC4=O)c3n1)CN(C)CC2 (stereo not shown) [Example 218, 3-[[6-[(6-methoxy-2-methyl-3,4-dihydro-1H-isoquinolin-7-yl)amino]pyrazolo[3,4-d]pyrimidin-1-yl]methyl]piperidin-2-one] | < 100
8 | COc1cc2c(cc1Nc1ncc3cnn(C[C@H]4CCCN4C(C)=O)c3n1)CN(C)CC2 [Example 117, (R)-1-(2-((6-((6-methoxy-2-methyl-1,2,3,4-tetrahydroisoquinolin-7-yl)amino)-1H-pyrazolo[3,4-d]pyrimidin-1-yl)methyl)pyrrolidin-1-yl)ethan-1-one trifluoroacetate] | < 100
9 | CC(C)n1nc(C(F)(F)F)c2cnc(Nc3ccc4c(c3)CN(C)CC4)nc21 [Example 6, N-[1-isopropyl-3-(trifluoromethyl)pyrazolo[3,4-d]pyrimidin-6-yl]-2-methyl-3,4-dihydro-1H-isoquinolin-7-amine] | < 100
10 | COc1cc2c(cc1Nc1ncc3cnn(CCC(N)=O)c3n1)CN(C)CC2 [Example 86, 3-[6-[(6-methoxy-2-methyl-3,4-dihydro-1H-isoquinolin-7-yl)amino]pyrazolo[3,4-d]pyrimidin-1-yl]210ropenamide] | < 100
11 | COc1cc2c(cc1Nc1ncc3cnn([C@@H]4CCC[C@H](CO)C4)c3n1)CN(C)CC2 (relative stereo) [Example 22, cis-3-(6-((6-methoxy-2-methyl-1,2,3,4-tetrahydroisoquinolin-7-yl)amino)-1H-pyrazolo[3,4-d]pyrimidin-1-ylcyclohexyl)methanol] | < 100
12 | COc1cc2c(cc1Nc1ncc3cnn([C@H]4C[C@@H](CNS(C)(=O)=O)C4)c3n1)CN(C)CC2 [Example 125, N-((cis-3-(6-((6-methoxy-2-methyl-1,2,3,4-tetrahydroisoquinolin-7-yl)amino)-1H-pyrazolo[3,4-d]pyrimidin-1-yl)cyclobutyl)methyl)methanesulfonamide] | 100 to 250
13 | COc1cc2c(cc1Nc1ncc3cnn(C[C@H]4[C@@H](O)CCN4C(C)=O)c3n1)CN(C)CC2 [Example 131] | > 251
14 | COc1cc2c(cc1Nc1ncc3c(C)nn([C@H]4CC[C@@H](CO)CC4)c3n1)CN(C)CC2 [Example 78, cis-[4-[6-[(6-methoxy-2-methyl-3,4-dihydro-1H-isoquinolin-7-yl)amino]-3-methyl-pyrazolo[3,4-d]pyrimidin-1-yl]cyclohexyl]methanol] | < 100
15 | COc1cc2c(cc1Nc1ncc3cnn(C[C@H]4CCCN(S(C)(=O)=O)C4)c3n1)CN(C)CC2 [Example 143, 6-methoxy-2-methyl-N-[1-[[(3R)-1-methylsulfonyl-3-piperidyl]methyl]pyrazolo[3,4-d]pyrimidin-6-yl]-3,4-dihydro-1H-isoquinolin-7-amine] | < 100
16 | COc1nc2c(cc1Nc1ncc3cnn([C@H]4CC[C@H](CO)CC4)c3n1)CN(C)CC2 [Example 170] | < 100
17 | COc1cc2c(cc1Nc1ncc3cnn(C[C@@H]4[C@@H](C)CCN4C(C)=O)c3n1)CN(C)CC2 (single isomer, unassigned) [Example 148] | < 100
18 | COc1cc2c(cc1Nc1ncc3cnn([C@H]4CC[C@H](O)CC4)c3n1)CN(CCO)CC2 [Example 156, trans-4-(6-((2-(2-hydroxyethyl)-6-methoxy-1,2,3,4-tetrahydroisoquinolin-7-yl)amino)-1H-pyrazolo[3,4-d]pyrimidin-1-yl)cyclohexan-1-ol] | < 100
19 | COc1cc2c(cc1Nc1ncc3cnn(C[C@H](C)NS(C)(=O)=O)c3n1)CN(C)CC2 [Example 94, N-[(1S)-2-[6-[(6-methoxy-2-methyl-3,4-dihydro-1H-isoquinolin-7-yl]amino]pyrazolo[3,4-d]pyrimidin-1-yl]-1-methyl-ethyl]methanesulfonamide] | 100 to 250
20 | COc1cc2c(cc1Nc1ncc3cnn(C(C)C(C)(C)C#N)c3n1)CN(C)CC2 (stereo not shown) [Example 151, 3-(6-((6-methoxy-2-methyl-1,2,3,4-tetrahydroisoquinolin-7-yl)amino)-1H-pyrazolo[3,4-d]pyrimidin-1-yl)-2,2-dimethylbutanenitrile hydrochloride] | < 100
21 | COc1cc2c(cc1Nc1ncc3cnn(C[C@H]4C[C@H]4C)c3n1)CN(C)CC2 (racemic) [Example 202, 6-methoxy-2-methyl-N-(1-((cis-2-methylcyclopropyl)methyl)-1H-pyrazolo[3,4-d]pyrimidin-6-yl)-1,2,3,4-tetrahydroisoquinolin-7-amine, Trifluoroacetate Salt] | < 100
22 | COc1cc2c(cc1Nc1ncc3cnn(C[C@@H]4[C@@H](C)[C@H](O)CN4C(C)=O)c3n1)CN(C)CC2 [Example 164, 1-[(2S,3R,4R)-4-hydroxy-2-[[6-[(6-methoxy-2-methyl-3,4-dihydro-1H-isoquinolin-7-yl)amino]pyrazolo[3,4-d]pyrimidin-1-yl]methyl]-3-methyl-pyrrolidin-1-yl]ethenone] | < 100
23 | COc1cc2c(cc1Nc1ncc3cnn(C[C@@H]4[C@@H]5C[C@@H]5CN4C(C)=O)c3n1)CN(C)CC2 [Example 137, 1-((1R,2S,5S)-2-((6-((6-methoxy-2-methyl-1,2,3,4-tetrahydroisoquinolin-7-yl)amino)-1H-pyrazolo[3,4-d]pyrimidin-1-yl)methyl)-3-azabicyclo[3.1.0]hexan-3-yl)ethan-1-one] | < 100
24 | COC(=O)N[C@H](C)Cn1ncc2cnc(Nc3cc4c(cc3OC)CCN(C)C4)nc21 [Example 98, methyl N-[(1R)-2-[6-[(6-methoxy-2-methyl-3,4-dihydro-1H-isoquinolin-7-yl)amino]pyrazolo[3,4-d]pyrimidin-1-yl]-1-methyl-ethyl]carbamate] | 100 to 250
25 | COc1cc2c(cc1Nc1ncc3cnn(C[C@H]4C[C@H]4CO)c3n1)CN(C)CC2 (relative stereo) [Example 205, (cis-2-((6-((6-methoxy-2-methyl-1,2,3,4-tetrahydroisoquinolin-7-yl)amino)-1H-pyrazolo[3,4-d]pyrimidin-1-yl)methyl)cyclopropyl)methanol] | < 100

Reference: patent US11918582B2 (RAPT Therapeutics, Inc., priority 2021, dated 2024)
